Source: patent publication US10618918B2, “Substituted boronic acids as antimicrobials” (priority 2015, dated 2020)
Like-named read-outs stand apart in the source and are kept apart here.

Assays:
[1] = system: KP1004 KPC-2; test: Biapenem potentiation (MPC@1), strain KP1004 KPC-2; type: cell-based; conditions: minimum BLI concentration inhibiting growth with biapenem 1 μg/mL; tested up to 40 μg/mL
Method: (§1) Biapenem was present in the test medium at 1 μg/mL. […] Table 3 summarizes the BLI potency of biapenem potentiation (MPC@1) for two strains overexpressing class A (KPC) and class D (OXA-48) carbapenemases. Biapenem MIC for each strain is also shown.

[2] = system: KP1086 OXA-48; test: Biapenem potentiation (MPC@1), strain KP1086 OXA-48; type: cell-based; conditions: minimum BLI concentration inhibiting growth with biapenem 1 μg/mL; tested up to 40 μg/mL
Method: as §1

[3] = system: AB1053 OXA-72; test: Meropenem potentiation (MPC@8), strain AB1053 OXA-72; type: cell-based, Acinetobacter baumannii; conditions: minimum BLI concentration inhibiting growth with meropenem 8 μg/mL; tested up to 20 μg/mL
[4] = system: AB1054 OXA-23; test: Meropenem potentiation (MPC@8), strain AB1054 OXA-23; type: cell-based, Acinetobacter baumannii; conditions: minimum BLI concentration inhibiting growth with meropenem 8 μg/mL; tested up to 20 μg/mL
[5] = target: T1, purified class A, C and D enzymes (β-lactamases) (Acinetobacter baumannii, UniProt Q9L4P2); test: biochemical; type: biochemical; conditions: purified OXA-23; nitrocefin (NCF) as reporter substrate
T1 construct: rows headed: Ki (OXA-23, NCF), uM; other: purified OXA-23; nitrocefin (NCF) as reporter substrate
T1 sequence (Q9L4P2 whole entry): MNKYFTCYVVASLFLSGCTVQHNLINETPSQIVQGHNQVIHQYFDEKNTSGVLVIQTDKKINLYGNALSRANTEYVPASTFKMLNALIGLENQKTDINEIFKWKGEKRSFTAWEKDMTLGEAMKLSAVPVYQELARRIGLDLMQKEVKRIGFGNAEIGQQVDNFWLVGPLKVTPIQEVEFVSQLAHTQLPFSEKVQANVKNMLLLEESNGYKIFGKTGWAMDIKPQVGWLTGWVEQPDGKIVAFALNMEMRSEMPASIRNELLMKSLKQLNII

[6] = target: purified class A, C and D enzymes (β-lactamases) (Enterobacter cloacae, UniProt P05364); test: biochemical; type: biochemical
Chain of purified class A, C and D enzymes (β-lactamases) (Enterobacter cloacae, UniProt P05364) (P05364 21-381): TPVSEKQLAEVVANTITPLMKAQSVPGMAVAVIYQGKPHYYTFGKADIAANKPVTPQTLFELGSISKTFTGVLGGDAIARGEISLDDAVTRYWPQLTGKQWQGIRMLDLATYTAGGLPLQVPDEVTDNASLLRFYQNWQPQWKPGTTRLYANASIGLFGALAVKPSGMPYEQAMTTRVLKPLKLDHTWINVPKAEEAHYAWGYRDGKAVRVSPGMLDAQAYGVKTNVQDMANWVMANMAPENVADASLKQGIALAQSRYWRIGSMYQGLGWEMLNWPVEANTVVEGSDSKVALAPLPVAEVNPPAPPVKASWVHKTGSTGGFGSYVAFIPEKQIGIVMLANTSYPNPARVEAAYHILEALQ

[7] = target: purified class A, C and D enzymes (β-lactamases) (Escherichia coli, UniProt Q9L5C7); test: biochemical; type: biochemical; conditions: purified CTX-M-14; nitrocefin (NCF) as reporter substrate
Chain of purified class A, C and D enzymes (β-lactamases) (Escherichia coli, UniProt Q9L5C7) (Q9L5C7 entry or part of it): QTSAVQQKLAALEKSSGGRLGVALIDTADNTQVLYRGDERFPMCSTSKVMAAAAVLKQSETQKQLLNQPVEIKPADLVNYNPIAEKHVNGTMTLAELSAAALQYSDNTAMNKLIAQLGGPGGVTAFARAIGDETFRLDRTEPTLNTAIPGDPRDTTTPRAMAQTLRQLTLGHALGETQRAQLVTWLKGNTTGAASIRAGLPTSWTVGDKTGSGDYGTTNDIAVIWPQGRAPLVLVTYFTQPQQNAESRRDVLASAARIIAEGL

[8] = target: purified class A, C and D enzymes (β-lactamases) (Klebsiella pneumoniae, UniProt Q6XEC0); test: biochemical; type: biochemical; conditions: purified OXA-48; nitrocefin (NCF) as reporter substrate
[9] = target: purified class A, C and D enzymes (β-lactamases) (Klebsiella pneumoniae, UniProt Q9F663); test: biochemical; type: biochemical; conditions: purified KPC-2; nitrocefin (NCF) as reporter substrate
[10] = target: T2, purified class A, C and D enzymes (β-lactamases) (Pseudomonas aeruginosa, UniProt P24735); test: biochemical; type: biochemical
T2 construct: rows headed: Ki (Pa-AmpC, NCF), uM; other: purified Pa-AmpC; nitrocefin (NCF) as reporter substrate
T2 sequence (P24735 whole entry): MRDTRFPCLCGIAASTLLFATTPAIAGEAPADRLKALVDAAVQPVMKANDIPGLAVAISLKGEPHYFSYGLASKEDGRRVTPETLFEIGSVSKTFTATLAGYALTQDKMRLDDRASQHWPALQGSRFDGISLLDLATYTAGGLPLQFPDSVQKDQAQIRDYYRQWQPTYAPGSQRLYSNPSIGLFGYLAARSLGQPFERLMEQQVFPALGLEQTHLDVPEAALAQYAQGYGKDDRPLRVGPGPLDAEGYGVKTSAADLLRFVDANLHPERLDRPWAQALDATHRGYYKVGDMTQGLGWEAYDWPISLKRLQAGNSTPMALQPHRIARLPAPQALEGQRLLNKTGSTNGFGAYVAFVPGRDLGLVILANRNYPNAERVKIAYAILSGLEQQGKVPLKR

[11] = system: ECL1002; test: Aztreonam potentiation (MPC@4), strain ECL1002; conditions: minimum BLI concentration inhibiting growth with aztreonam 4 μg/mL; tested up to 40 μg/mL
[12] = system: ec308 SHV-5; test: Aztreonam potentiation (MPC@4), strain ec308 SHV-5; conditions: minimum BLI concentration inhibiting growth with aztreonam 4 μg/mL; tested up to 40 μg/mL
[13] = system: ec302 TEM-10; test: Aztreonam potentiation (MPC@4), strain ec302 TEM-10; conditions: minimum BLI concentration inhibiting growth with aztreonam 4 μg/mL; tested up to 40 μg/mL
[14] = system: KP1004 KPC-2; test: Aztreonam potentiation (MPC@4), strain KP1004 KPC-2; conditions: minimum BLI concentration inhibiting growth with aztreonam 4 μg/mL; tested up to 40 μg/mL
[15] = system: EC1010 CMY-6; test: Aztreonam potentiation (MPC@4), strain EC1010 CMY-6; conditions: minimum BLI concentration inhibiting growth with aztreonam 4 μg/mL; tested up to 40 μg/mL
[16] = system: KP1010 SHV-12; test: Aztreonam potentiation (MPC@4), strain KP1010 SHV-12; conditions: minimum BLI concentration inhibiting growth with aztreonam 4 μg/mL; tested up to 40 μg/mL
[17] = system: KP1009 CTX-M-15; test: Aztreonam potentiation (MPC@4), strain KP1009 CTX-M-15; conditions: minimum BLI concentration inhibiting growth with aztreonam 4 μg/mL; tested up to 40 μg/mL
[18] = system: KP1005 CTX-M-14; test: Tigemonam potentiation (MPC@4), strain KP1005 CTX-M-14; conditions: minimum BLI concentration inhibiting growth with tigemonam 4 μg/mL; tested up to 40 μg/mL

Structure (SMILES)	BPM MPC1 KP1004 KPC-2 [1]	BPM MPC1 OXA-48 KP1086 [2]	MPM MPC8 AB1053 OXA-72 [3]	MPM MPC8 AB1054 OXA-23 [4]	Ki [5]	Ki (P99, NCF), uM [6]	Ki (CTX-M-14, NCF), uM [7]	Ki (OXA-48, NCF), uM [8]	Ki (KPC-2, NCF), uM [9]	Ki [10]	AZT MPC4 ECL1002 [11]	AZT MPC4 SHV-5 ec308 [12]	AZT MPC4 TEM-10 ec302 [13]	AZT MPC4 KPC-2 KP1004 [14]	AZT MPC4 CMY-6 EC1010 [15]	AZT MPC4 SHV-12 KP1010 [16]	AZT MPC4 CTX-M-15 KP1009 [17]	TIG MPC4 CTX-M-14 KP1005 [18]	Ki (P99, NCF), uM ([6]; purified P99, nitrocefin (NCF) as reporter substrate)	Ki ([10]; purified Pa-AmpC, nitrocefin (NCF) as reporter substrate, read-out: Ki (Pa-AmpC, NCF))
CN(C)CCOc1ccc2c(c1C(=O)[O-])O[B-](O)(O)CC2.[Na+].[Na+] [Compound 48, Disodium; 8-[2-(dimethylamino)ethoxy]-4,4-dihydroxy-5-oxa-4-boranuidabicyclo[4.4.0]deca-1(6),7,9-triene-7-carboxylate]	X (X = MPC@1 ≤ 5 μg/mL)	X (X = MPC@1 ≤ 5 μg/mL)	X (X = MPC@1 ≤ 5 μg/mL)	Y (Y = 5 μg/mL < MPC@1 ≤ 20 μg/mL)	< 100 nM	Y (key: X = Ki ≤ 0.1 μM; Y = 0.1 μM < Ki ≤ 1 μM; Z = Ki > 1 μM)	X (X = Ki ≤ 0.1 μM)	X (X = Ki ≤ 0.1 μM)	X (X = Ki ≤ 0.1 μM)	100 to 1000 nM	Y (Y = 5 μg/mL < MPC@4 ≤ 20 μg/mL)	Y (Y = 5 μg/mL < MPC@4 ≤ 20 μg/mL)	Y (Y = 5 μg/mL < MPC@4 ≤ 20 μg/mL)	X (X = MPC@4 ≤ 5 μg/mL)	X (X = MPC@4 ≤ 5 μg/mL)	X (X = MPC@4 ≤ 5 μg/mL)	Y (Y = 5 μg/mL < MPC@4 ≤ 20 μg/mL)	Z (Z = MPC@4 > 20 μg/mL)	–	–
NC(=O)COc1ccc2c(c1C(=O)O)OB(O)CC2 [Compound 46, 7-(2-Amino-2-oxo-ethoxy)-2-hydroxy-3,4-dihydro-1,2-benzoxaborinine-8-carboxylic acid]	X (X = MPC@1 ≤ 5 μg/mL)	Y (Y = 5 μg/mL < MPC@1 ≤ 20 μg/mL)	X (X = MPC@1 ≤ 5 μg/mL)	Y (Y = 5 μg/mL < MPC@1 ≤ 20 μg/mL)	< 100 nM	–	X (X = Ki ≤ 0.1 μM)	X (X = Ki ≤ 0.1 μM)	X (X = Ki ≤ 0.1 μM)	–	X (X = MPC@4 ≤ 5 μg/mL)	X (X = MPC@4 ≤ 5 μg/mL)	X (X = MPC@4 ≤ 5 μg/mL)	X (X = MPC@4 ≤ 5 μg/mL)	X (X = MPC@4 ≤ 5 μg/mL)	X (X = MPC@4 ≤ 5 μg/mL)	X (X = MPC@4 ≤ 5 μg/mL)	Z (Z = MPC@4 > 20 μg/mL)	X (X = Ki ≤ 0.1 μM)	< 100 nM
O=C([O-])c1c(OCC2CC2)ccc2c1O[B-](O)(O)CC2.[Na+].[Na+] [Compound 45, Disodium; 8-(cyclopropylmethoxy)-4,4-dihydroxy-5-oxa-4-boranuidabicyclo[4.4.0]deca-1(6),7,9-triene-7-carboxylate]	X (X = MPC@1 ≤ 5 μg/mL)	X (X = MPC@1 ≤ 5 μg/mL)	X (X = MPC@1 ≤ 5 μg/mL)	X (X = MPC@1 ≤ 5 μg/mL)	< 100 nM	X (key: X = Ki ≤ 0.1 μM; Y = 0.1 μM < Ki ≤ 1 μM; Z = Ki > 1 μM)	X (X = Ki ≤ 0.1 μM)	X (X = Ki ≤ 0.1 μM)	X (X = Ki ≤ 0.1 μM)	< 100 nM	Y (Y = 5 μg/mL < MPC@4 ≤ 20 μg/mL)	Y (Y = 5 μg/mL < MPC@4 ≤ 20 μg/mL)	Y (Y = 5 μg/mL < MPC@4 ≤ 20 μg/mL)	X (X = MPC@4 ≤ 5 μg/mL)	X (X = MPC@4 ≤ 5 μg/mL)	X (X = MPC@4 ≤ 5 μg/mL)	Z (Z = MPC@4 > 20 μg/mL)	Z (Z = MPC@4 > 20 μg/mL)	–	–
O=C([O-])c1c(C(F)F)ccc2c1O[B-](O)(O)CC2.[Na+].[Na+] [Compound 50, Disodium; 8-(difluoromethyl)-4,4-dihydroxy-5-oxa-4-boranuidabicyclo[4.4.0]deca-1(6),7,9-triene-7-carboxylate]	X (X = MPC@1 ≤ 5 μg/mL)	X (X = MPC@1 ≤ 5 μg/mL)	Y (Y = 5 μg/mL < MPC@1 ≤ 20 μg/mL)	Y (Y = 5 μg/mL < MPC@1 ≤ 20 μg/mL)	< 100 nM	X (key: X = Ki ≤ 0.1 μM; Y = 0.1 μM < Ki ≤ 1 μM; Z = Ki > 1 μM)	X (X = Ki ≤ 0.1 μM)	X (X = Ki ≤ 0.1 μM)	X (X = Ki ≤ 0.1 μM)	< 100 nM	X (X = MPC@4 ≤ 5 μg/mL)	X (X = MPC@4 ≤ 5 μg/mL)	X (X = MPC@4 ≤ 5 μg/mL)	X (X = MPC@4 ≤ 5 μg/mL)	X (X = MPC@4 ≤ 5 μg/mL)	X (X = MPC@4 ≤ 5 μg/mL)	X (X = MPC@4 ≤ 5 μg/mL)	X (X = MPC@4 ≤ 5 μg/mL)	–	–
O=C([O-])c1c(CSc2nncs2)ccc2c1O[B-](O)(O)CC2.[Na+].[Na+] [Compound 20, Disodium; 4,4-dihydroxy-8-(1,3,4-thiadiazol-2-ylsulfanylmethyl)-5-oxa-4-boranuidabicyclo[4.4.0]deca-1(6),7,9-triene-7-carboxylate]	X (X = MPC@1 ≤ 5 μg/mL)	X (X = MPC@1 ≤ 5 μg/mL)	Y (Y = 5 μg/mL < MPC@1 ≤ 20 μg/mL)	Y (Y = 5 μg/mL < MPC@1 ≤ 20 μg/mL)	< 100 nM	X (key: X = Ki ≤ 0.1 μM; Y = 0.1 μM < Ki ≤ 1 μM; Z = Ki > 1 μM)	X (X = Ki ≤ 0.1 μM)	X (X = Ki ≤ 0.1 μM)	X (X = Ki ≤ 0.1 μM)	< 100 nM	X (X = MPC@4 ≤ 5 μg/mL)	X (X = MPC@4 ≤ 5 μg/mL)	X (X = MPC@4 ≤ 5 μg/mL)	X (X = MPC@4 ≤ 5 μg/mL)	X (X = MPC@4 ≤ 5 μg/mL)	X (X = MPC@4 ≤ 5 μg/mL)	X (X = MPC@4 ≤ 5 μg/mL)	Y (Y = 5 μg/mL < MPC@4 ≤ 20 μg/mL)	–	–
Nc1nnc(SCc2ccc3c(c2C(=O)[O-])O[B-](O)(O)CC3)s1.[Na+].[Na+] [Compound 22, Disodium; 8-[(5-amino-1,3,4-thiadiazol-2-yl)sulfanylmethyl]-4,4-dihydroxy-5-oxa-4-boranuidabicyclo[4.4.0]deca-1(6),7,9-triene-7-carboxylate]	X (X = MPC@1 ≤ 5 μg/mL)	Y (Y = 5 μg/mL < MPC@1 ≤ 20 μg/mL)	Z (Z = MPC@1 > 20 μg/mL)	Y (Y = 5 μg/mL < MPC@1 ≤ 20 μg/mL)	< 100 nM	X (key: X = Ki ≤ 0.1 μM; Y = 0.1 μM < Ki ≤ 1 μM; Z = Ki > 1 μM)	X (X = Ki ≤ 0.1 μM)	X (X = Ki ≤ 0.1 μM)	X (X = Ki ≤ 0.1 μM)	< 100 nM	Y (Y = 5 μg/mL < MPC@4 ≤ 20 μg/mL)	Y (Y = 5 μg/mL < MPC@4 ≤ 20 μg/mL)	X (X = MPC@4 ≤ 5 μg/mL)	X (X = MPC@4 ≤ 5 μg/mL)	X (X = MPC@4 ≤ 5 μg/mL)	X (X = MPC@4 ≤ 5 μg/mL)	Y (Y = 5 μg/mL < MPC@4 ≤ 20 μg/mL)	Z (Z = MPC@4 > 20 μg/mL)	–	–
